# From ChEMBL document CHEMBL4680300, “Synthesis, biological evaluation, and NMR studies of 3-fluorinated derivatives of 3',4',5'-trihydroxyflavone and 3',4',5'-trimethoxyflavone” (Bioorg Med Chem Lett, 2021)
# Calls of active or inactive are those of the source. The calls are words filed in the database; no cut-off is given here.
# Experiments:
# Neuron [1] = experiment: Neuroprotective activity in Sprague-Dawley rat cortical neurons assessed as reduction in glutamate-induced cell death preincubated for 1 hr followed by glutamate stimulation and measured after 24 hrs by MTS assay; assay type: functional, tissue-based; details: time 25.0 hrs
# [2] = Antioxidant activity assessed as DPPH radical scavenging activity incubated for 20 mins in dark conditions; assay type: functional
# [3] = Stability of the compound in DMSO assessed as formation of ortho-quinone intermediate in presence of DPPH measured after 20 mins by NMR analysis; assay type: physicochemical
# [4] = Stability of the compound in DMSO assessed as formation of ortho-quinone intermediate in presence of DPPH measured by mass spectrometry; assay type: physicochemical
# Neuron [5] = experiment: Neuroprotective activity in Sprague-Dawley rat cortical neurons assessed as reduction in glutamate-induced reactive oxygen species level incubated for 1 hr by DCFDA fluorescence-based microplate reader relative to control; assay type: functional, tissue-based
Structure (SMILES),Activity (Neuron [1]),EC50 [2],Stabilty [3],Stabilty [4],Activity (Neuron [5])
C[C@]12N[C@H](Cc3ccccc31)c1ccccc12,Active,,,,
O=c1cc(-c2cc(O)c(O)c(O)c2)oc2ccccc12,Active,0.33 µg/mL,,,
COc1cc(-c2oc3ccccc3c(=O)c2F)cc(OC)c1OC,,37.14 µg/mL,,,
COc1cc(-c2cc(=O)c3ccccc3o2)cc(OC)c1OC,,71.66 µg/mL,,,
O=c1c(F)c(-c2cc(O)c(O)c(O)c2)oc2ccccc12,Active,0.24 µg/mL,Unstable,Unstable,Active
O=C1O[C@H]([C@@H](O)CO)C(O)=C1O [ASCORBIC ACID],,0.16 µg/mL,,,
